Assay results from patent US20200223826A1, “Glucose-6-Phosphate Dehydrogenase (G6PD)-Modulating Agents And Methods Of Treating G6PD Deficiency” (The Board of Trustees of the Leland Stanford Junior …, priority 2017, published 2020).

What was measured:
[1] = molecular target: aldehyde dehydrogenase 2 (ALDH2) (Homo sapiens, UniProt P05091); assay: Selectivity: dimerization or activity of other NAD/NADP+-dependent enzymes; assay type: biochemical
[2] = molecular target: T1, A- (V68M, N126D) G6PD (Homo sapiens, UniProt P11413, N126D/V68M); assay: G6PD variant enzyme activity; assay type: biochemical
T1 construct: His (pET-28a) (N, cleaved yes); made in house; host or cells: E. coli C43 (DE3)
Method: (§1) Enzyme activity was measured by monitoring NADPH production, which was coupled with diaphorase converting resazurin to fluorescent resorufin (excitation at 565 nm and emission at 590 nm); fluorescent signal was thus proportional to G6PD activity. Assays were performed at 25° C. and run for 5 minutes in buffer containing 50 mM Tris (pH 7.4), 0.5 mM EDTA, 3.3 mM MgCl2, 1 U/ml diaphorase, 0.1 mM resazurin. 10 ng of recombinant enzymes or 10 μg of cell lysates was used for the assay with 10 μM NADP^+ (Sigma) as cofactor and 100 μM G6P (Sigma) as substrate. Steady-state kinetic parameters were obtained by varying concentrations of NADP^+ (0-10 μM) with a constant concentration of G6P (100 μM) and similarly for G6P (0-100 μM) with a constant concentration of NADP^+ (10 μM) with 10 ng of recombinant enzymes. Data analysis was performed using GraphPad Prism software v.6 (GraphPad Software, La Jolla, Calif. USA). Kinetic parameters were obtained by fitting the data to the Michaelis-Menten equation.

[3] = molecular target: T2, Kaiping (R463H) G6PD (Homo sapiens, UniProt P11413, R463H); assay: G6PD variant enzyme activity; assay type: biochemical
T2 construct: His (pET-28a) (N, cleaved yes); made in house; host or cells: E. coli C43 (DE3)
Method: as §1

[4] = molecular target: T3, Mediterranean (S188F) G6PD (Homo sapiens, UniProt P11413, S188F); assay: G6PD variant enzyme activity; assay type: biochemical
T3 construct: His (pET-28a) (N, cleaved yes); made in house; host or cells: E. coli C43 (DE3)
Method: as §1

[5] = molecular target: T4, Canton G6PD in lymphocytes carrying the Canton variant (Homo sapiens, UniProt P11413, R459L); assay: Cycloheximide chase assay in lymphocytes; assay type: cell-based; settings: 1 μM; 24 hours following cycloheximide treatment
T4 construct: host or cells: lymphocytes from a G6PD-deficient subject
Method: (§2) Lymphocytes derived from a normal subject (HG 00866) and a G6PD-deficient subject carrying Canton variant in G6PD (HG 02367) were purchased from Coriell Institute and cultured in RPMI 1640 supplemented with 15% fetal bovine serum (FBS), 100 U/ml penicillin, and 100 μg/ml streptomycin. An SH-SY5Y neuroblastoma cell line was cultured in Dulbecco's Modification of Eagle's Medium/Ham's F-12 50/50 Mix supplemented with 10% FBS, 100 U/ml penicillin, and 100 μg/ml streptomycin. A G6PD-deficient subject-derived fibroblast cell line carrying Mediterranean variant and normal fibroblast cell line as control were purchased from Coriell Institute (GM 01152) and ThermoFisher Scientific (C0135C), respectively, and cultured in minimum essential medium supplemented with 15% FBS, 100 U/ml penicillin, and 100 μg/ml streptomycin. All the cell lines were maintained at 37° C. in a humidified incubator with an atmosphere of 5% of CO2 and 95% air.
(§3) 50,000 cells (SH-SH5Y cells or fibroblast cells) or 100,000 cells (lymphocytes) were seeded in a 12-well plate and incubated overnight. The cells were subjected to serum starvation (50-75%) for 48 hours and treated with 50 μg/ml of cycloheximide at different time points (0-48 hours). The cells were treated with the compound (1 μM) for 48 hours together with cycloheximide. […]

[6] = test system: lymphocytes carrying the Canton variant; assay: Glutathione (GSH) measurement in lymphocytes; assay type: cell-based, human; settings: treatment with AG1 for 24 hours
Method: Total glutathione level was measured using a Total Glutathione Quantification Kit (Dojindo), according to the manufacturer's instructions. The assay utilized DTNB (5,5′-dithio-bis-(2-nitrobenzoic acid)) that reacts with glutathione to produce 5-mercapto-2-nitrobenzoic acid, a yellow colored product. Cells were subjected to serum starvation (50-75%) for 48 hours to induce oxidative stress and treated with the compound for 24 hours before measurement. The absorbance was read at 412 nm.

[7] = molecular target: T5, G6PD in fibroblast cells carrying Mediterranean variant (Homo sapiens, UniProt P11413, S188F); assay: Cycloheximide chase in fibroblasts; assay type: cell-based; settings: cycloheximide treatment
T5 construct: host or cells: subject-derived fibroblast cell line
Method: as §2, §3

[8] = test system: zebrafish embryos; assay: ROS levels in chloroquine-treated zebrafish embryos; assay type: in vivo; settings: chloroquine 50 μg/ml
Method: Embryos were dechorinated with pronase at 24 hours post fertilization (hpf) and treated with 50 μg/ml of chloroquine and/or AG1 by directly adding the compounds to the well. For ROS measurements, embryos were incubated with compounds for 2 hours, and then the ROS detecting reagent (CM-H2DCFDA) was added at a final concentration of 500 ng/ml to the well for a total treatment time of 5 hours. One embryo was placed to each well of a black, opaque 96-well plate. The florescence was analyzed with excitation/emission at 485/525 nm. After ROS assays, embryos at about 32 hpf were pooled and lysed in buffer containing 50 mM Tris (pH 7.4), 150 mM NaCl, 1 mM EDTA, 0.1% NP-40, and protease inhibitor cocktail, which was followed by three cycles of freeze and thawing in liquid nitrogen. The lysate was centrifuged at 14,000 rpm at 4° C. for 15 minutes. Total protein concentration in the supernatants (total lysate) was determined by Bradford method. 50 μg of total lysate was loaded onto 10% SDS-PAGE gels and the protein level was examined by Western blot using anti-G6PD antibody (Abcam (G6PD: AB87230)). 10 μg of total lysate was used for enzymatic assay. 50 μg of the lysate was used to measure NADPH levels using a NADPH quantification kit (Biovision), according to the manufacturer's instructions.

T2 sequence (P11413 whole entry R463H): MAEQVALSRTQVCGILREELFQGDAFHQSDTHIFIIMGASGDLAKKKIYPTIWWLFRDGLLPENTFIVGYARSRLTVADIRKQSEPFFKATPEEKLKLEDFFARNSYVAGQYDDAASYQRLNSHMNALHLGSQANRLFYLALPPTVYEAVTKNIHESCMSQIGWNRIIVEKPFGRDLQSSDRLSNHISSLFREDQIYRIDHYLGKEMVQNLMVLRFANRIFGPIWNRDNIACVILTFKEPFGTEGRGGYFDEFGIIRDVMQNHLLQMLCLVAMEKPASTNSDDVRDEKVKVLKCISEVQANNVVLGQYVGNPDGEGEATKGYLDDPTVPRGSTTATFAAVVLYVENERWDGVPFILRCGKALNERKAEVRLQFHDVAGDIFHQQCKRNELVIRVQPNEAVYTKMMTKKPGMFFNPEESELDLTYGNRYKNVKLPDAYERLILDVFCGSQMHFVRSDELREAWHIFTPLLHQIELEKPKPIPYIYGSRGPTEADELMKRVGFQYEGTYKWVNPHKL
T3 sequence (P11413 whole entry S188F): as the sequence (P11413 whole entry R463H) above, with S188F, H463R counted along it
T4 sequence (P11413 2-515 R459L limits assumed): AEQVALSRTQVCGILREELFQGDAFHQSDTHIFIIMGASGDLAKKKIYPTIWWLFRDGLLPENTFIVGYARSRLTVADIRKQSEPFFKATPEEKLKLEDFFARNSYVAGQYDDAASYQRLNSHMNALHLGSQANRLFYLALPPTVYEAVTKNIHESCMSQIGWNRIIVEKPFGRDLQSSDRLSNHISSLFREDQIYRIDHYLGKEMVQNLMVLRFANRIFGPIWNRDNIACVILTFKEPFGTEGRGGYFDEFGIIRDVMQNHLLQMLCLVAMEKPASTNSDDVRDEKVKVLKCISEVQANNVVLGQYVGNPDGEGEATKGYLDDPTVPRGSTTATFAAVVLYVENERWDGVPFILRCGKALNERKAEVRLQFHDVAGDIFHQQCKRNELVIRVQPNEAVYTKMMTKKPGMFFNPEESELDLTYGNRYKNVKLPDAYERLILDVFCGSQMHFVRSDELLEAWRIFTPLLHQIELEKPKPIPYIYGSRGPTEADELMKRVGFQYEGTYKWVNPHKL
T5 sequence (P11413 2-515 S188F limits assumed): as the sequence (P11413 2-515 R459L limits assumed) above, with S187F, L458R counted along it
T1 sequence (P11413 whole entry V68M/N126D): as the sequence (P11413 whole entry R463H) above, with V68M, N126D, H463R counted along it
Sequence of aldehyde dehydrogenase 2 (ALDH2) (P05091 18-517, species assumed): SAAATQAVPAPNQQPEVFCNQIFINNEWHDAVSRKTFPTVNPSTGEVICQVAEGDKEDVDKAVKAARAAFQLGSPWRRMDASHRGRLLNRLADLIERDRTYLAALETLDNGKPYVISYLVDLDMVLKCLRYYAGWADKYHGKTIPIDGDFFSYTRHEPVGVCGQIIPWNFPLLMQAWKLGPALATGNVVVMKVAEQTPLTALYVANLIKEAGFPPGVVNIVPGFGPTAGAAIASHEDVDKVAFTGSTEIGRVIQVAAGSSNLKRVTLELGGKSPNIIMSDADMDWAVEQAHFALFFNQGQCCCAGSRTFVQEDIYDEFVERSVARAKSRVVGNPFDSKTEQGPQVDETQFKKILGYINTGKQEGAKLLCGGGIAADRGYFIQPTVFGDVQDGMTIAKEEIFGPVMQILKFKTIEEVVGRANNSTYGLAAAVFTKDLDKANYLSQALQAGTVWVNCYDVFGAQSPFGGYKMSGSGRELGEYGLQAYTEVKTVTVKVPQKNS

**Q.** With `SCCNCCc1c[nH]c2ccccc12` [AG1, 2-[2-(1H-indol-3-yl)ethylamino]ethanethiol] as the compound, how does the “effect on dimerization or activity” value [1] read?
**A.** no effect

**Q.** And the activation of variant [2]?
**A.** up to 2 fold

**Q.** What about the activation of variant [3] of the same compound?
**A.** up to 2 fold

**Q.** And the activation of variant [4]?
**A.** up to 2 fold

**Q.** And the “level of Canton protein, higher relative to vehicle treatment” value [5]?
**A.** 48%

**Q.** And the “level of GSH” value [6]?
**A.** slightly increased

**Q.** And the “stability of G6PD” value [7]?
**A.** stabilized

**Q.** And the ROS levels [8]?
**A.** reduced
